Assay results taken from patent publication US20230125667A1, “NOVEL TDZD ANALOGS AS AGENTS THAT DELAY, PREVENT, OR REVERSE AGE-ASSOCIATED DISEASES AND AS ANTI-CANCER AND ANTILEUKEMIC AGENTS” (United States Government as represented by the Department …, priority 2020, published 2023).

What was measured:
DU-145 = experiment: NCI-60 growth inhibition: DU-145 (Prostate Cancer); format: cell-based, human
OVCAR-5 = experiment: NCI-60 growth inhibition: OVCAR-5 (Ovarian Cancer); format: cell-based, human
MDA-MB-468 = experiment: NCI-60 growth inhibition: MDA-MB-468 (Breast Cancer); format: cell-based, human; details: MDA-MB-468 (Breast Cancer); read-out: GI50
SF-268 = experiment: NCI-60 growth inhibition: SF-268 (CNS Cancer); format: cell-based, human
SNB-75 = experiment: NCI-60 growth inhibition: SNB-75 (CNS Cancer); format: cell-based, human
UACC-257 = experiment: NCI-60 growth inhibition: UACC-257 (Melanoma); format: cell-based, human
RPMI-8226 = experiment: NCI-60 growth inhibition: RPMI-8226 (Leukemia); format: cell-based, human
LOX IMVI = experiment: NCI-60 growth inhibition: LOX IMVI (Melanoma); format: cell-based, human
[1] = system: MV4-11 cell line (myelomonocytic leukemia); details: MV4-11 cells, 24 h, MMB-TDZD analogs (Table 2)
MALME-3M = experiment: NCI-60 growth inhibition: MALME-3M (Melanoma); format: cell-based, human
CAKI-1 = experiment: NCI-60 growth inhibition: CAKI-1 (Renal Cancer); format: cell-based, human
COLO 205 = experiment: NCI-60 growth inhibition: COLO 205 (Colon Cancer); format: cell-based, human
K-562 = experiment: NCI-60 growth inhibition: K-562 (Leukemia); format: cell-based, human
A498 = experiment: NCI-60 growth inhibition: A498 (Renal Cancer); format: cell-based, human
SNB-19 = experiment: NCI-60 growth inhibition: SNB-19 (CNS Cancer); format: cell-based, human
HS 578T = experiment: NCI-60 growth inhibition: HS 578T (Breast Cancer); format: cell-based, human
OVCAR-3 = experiment: NCI-60 growth inhibition: OVCAR-3 (Ovarian Cancer); format: cell-based, human
SK-MEL-28 = experiment: NCI-60 growth inhibition: SK-MEL-28 (Melanoma); format: cell-based, human
ACHN = experiment: NCI-60 growth inhibition: ACHN (Renal Cancer); format: cell-based, human
SN12C = experiment: NCI-60 growth inhibition: SN12C (Renal Cancer); format: cell-based, human
T-47D = experiment: NCI-60 growth inhibition: T-47D (Breast Cancer); format: cell-based, human
NCI-H23 = experiment: NCI-60 growth inhibition: NCI-H23 (Non-Small-Cell Lung Cancer); format: cell-based, human
MDA-MB-435 = experiment: NCI-60 growth inhibition: MDA-MB-435 (Melanoma); format: cell-based, human
NCI-H460 = experiment: NCI-60 growth inhibition: NCI-H460 (Non-Small-Cell Lung Cancer); format: cell-based, human
BT-549 = experiment: NCI-60 growth inhibition: BT-549 (Breast Cancer); format: cell-based, human
SW-620 = experiment: NCI-60 growth inhibition: SW-620 (Colon Cancer); format: cell-based, human
OVCAR-8 = experiment: NCI-60 growth inhibition: OVCAR-8 (Ovarian Cancer); format: cell-based, human
SK-MEL-5 = experiment: NCI-60 growth inhibition: SK-MEL-5 (Melanoma); format: cell-based, human
HOP-92 = experiment: NCI-60 growth inhibition: HOP-92 (Non-Small-Cell Lung Cancer); format: cell-based, human
OVCAR-4 = experiment: NCI-60 growth inhibition: OVCAR-4 (Ovarian Cancer); format: cell-based, human
CCRF-CEM = experiment: NCI-60 growth inhibition: CCRF-CEM (Leukemia); format: cell-based, human
MDA-MB-231/ATCC = experiment: NCI-60 growth inhibition: MDA-MB-231/ATCC (Breast Cancer); format: cell-based, human
HT29 = experiment: NCI-60 growth inhibition: HT29 (Colon Cancer); format: cell-based, human
IGROV1 = experiment: NCI-60 growth inhibition: IGROV1 (Ovarian Cancer); format: cell-based, human
SK-MEL-2 = experiment: NCI-60 growth inhibition: SK-MEL-2 (Melanoma); format: cell-based, human
HCT-15 = experiment: NCI-60 growth inhibition: HCT-15 (Colon Cancer); format: cell-based, human
MCF7 = experiment: NCI-60 growth inhibition: MCF7 (Breast Cancer); format: cell-based, human
UO-31 = experiment: NCI-60 growth inhibition: UO-31 (Renal Cancer); format: cell-based, human
SR = experiment: NCI-60 growth inhibition: SR (Leukemia); format: cell-based, human
EKVX = experiment: NCI-60 growth inhibition: EKVX (Non-Small-Cell Lung Cancer); format: cell-based, human
SF-539 = experiment: NCI-60 growth inhibition: SF-539 (CNS Cancer); format: cell-based, human
RXF 393 = experiment: NCI-60 growth inhibition: RXF 393 (Renal Cancer); format: cell-based, human
U251 = experiment: NCI-60 growth inhibition: U251 (CNS Cancer); format: cell-based, human
NCI-H522 = experiment: NCI-60 growth inhibition: NCI-H522 (Non-Small-Cell Lung Cancer); details: NCI-H522 (Non-Small-Cell Lung Cancer)
HL-60(TB) = experiment: NCI-60 growth inhibition: HL-60(TB) (Leukemia); format: cell-based, human; details: HL-60(TB) (Leukemia); read-out: GI50
PC-3 = experiment: NCI-60 growth inhibition: PC-3 (Prostate Cancer); format: cell-based, human
786-0 = experiment: NCI-60 growth inhibition: 786-0 (Renal Cancer); format: cell-based, human
MOLT-4 = experiment: NCI-60 growth inhibition: MOLT-4 (Leukemia); format: cell-based, human
UACC-62 = experiment: NCI-60 growth inhibition: UACC-62 (Melanoma); format: cell-based, human
TK-10 = experiment: NCI-60 growth inhibition: TK-10 (Renal Cancer); format: cell-based, human
M14 = experiment: NCI-60 growth inhibition: M14 (Melanoma); format: cell-based, human
HCT-116 = experiment: NCI-60 growth inhibition: HCT-116 (Colon Cancer); details: HCT-116 (Colon Cancer)

## C=C1C(=O)O[C@H]2[C@H]1CC/C(COC(=O)NCc1ccc(Cn3c(=O)sn(CCCl)c3=O)cc1)=C\CC[C@@]1(C)O[C@@H]21 [BSK-140]
DU-145
  GI50: 1720 nM
OVCAR-5
  GI50: 1970 nM
MDA-MB-468
  GI50: 1780 nM
SF-268
  GI50: 3730 nM
SNB-75
  GI50: 7650 nM
UACC-257
  GI50: 1850 nM
RPMI-8226
  GI50: 2370 nM
LOX IMVI
  GI50: 1690 nM
[1]; 7AAD
  LD50, 7AAD (μM) 24 h: 4.42 µM
[1]; Alamar blue
  LD50, Alamar blue (μM) 24 h: 1.50 µM
[1]; YOPRO
  LD50, YOPRO (μM) 24 h: 2.88 µM
MALME-3M
  GI50: 1720 nM
CAKI-1
  GI50: 1760 nM
COLO 205
  GI50: 1840 nM
K-562
  GI50: 2070 nM
A498
  GI50: 11500 nM
SNB-19
  GI50: 11900 nM
HS 578T
  GI50: 12100 nM
OVCAR-3
  GI50: 1530 nM
SK-MEL-28
  GI50: 1740 nM
ACHN
  GI50: 1540 nM
SN12C
  GI50: 2010 nM
T-47D
  GI50: 1970 nM
NCI-H23
  GI50: 2180 nM
MDA-MB-435
  GI50: 1740 nM
NCI-H460
  GI50: 5100 nM
BT-549
  GI50: 1450 nM
SW-620
  GI50: 1170 nM
OVCAR-8
  GI50: 2040 nM
SK-MEL-5
  GI50: 1700 nM
HOP-92
  GI50: 1500 nM
OVCAR-4
  GI50: 1920 nM
CCRF-CEM
  GI50: 1730 nM
MDA-MB-231/ATCC
  GI50: 1890 nM
HT29
  GI50: 2160 nM
IGROV1
  GI50: 2500 nM
SK-MEL-2
  GI50: 10600 nM
HCT-15
  GI50: 1850 nM
MCF7
  GI50: 1910 nM
UO-31
  GI50: 1650 nM
SR
  GI50: 1480 nM
EKVX
  GI50: 1990 nM
SF-539
  GI50: 1820 nM
RXF 393
  GI50: 1180 nM
U251
  GI50: 6790 nM
NCI-H522
  GI50: 1380 nM
HL-60(TB)
  GI50: 1910 nM
PC-3
  GI50: 8090 nM
786-0
  GI50: 1790 nM
MOLT-4
  GI50: 1850 nM
UACC-62
  GI50: 1860 nM
TK-10
  GI50: 1770 nM
M14
  GI50: 1820 nM
HCT-116
  GI50: 1620 nM
